Data from patent publication US7662860B2 (priority 2003, dated 2010).

Biological target: SARS-CoV virus 3CL protease protein (Severe acute respiratory syndrome coronavirus, UniProt P0C6X7)
Assay: biochemical
Format: binding

CN(C)CCCSc1ccccc1NC(=O)C=Cc1ccccc1 [cinanserin, 2′-(3-dimethylaminopropylthio)cinnamanilide]
kd: 0.00993 s⁻¹ | kon (read-out: ka): 38600 M⁻¹ s⁻¹
